Results from the kinase profiling compilation of Christmann-Franck et al. (2016).

Columns and labels:
Assay in all cases: KINOMEscan competition binding
Conditions in all cases: compound 0.5 µM
[1] = system: ABL1 (human), P00519 [E255K]
ACVR1B (human) = ACVR1B (human) (UniProt P36896)
AKT3 (human) = AKT3 (human) (UniProt Q9Y243)
AURKC (human) = AURKC (human) (UniProt Q9UQB9)
CAMK4 (human) = CAMK4 (human) (UniProt Q16566)
CDC42BPB (human) = CDC42BPB (human) (UniProt Q9Y5S2)
CHUK (human) = CHUK (human) (UniProt O15111)
CLK4 (human) = CLK4 (human) (UniProt Q9HAZ1)
CSNK1G2 (human) = CSNK1G2 (human) (UniProt P78368)
EPHB3 (human) = EPHB3 (human) (UniProt P54753)
EPHB4 (human) = EPHB4 (human) (UniProt P54760)
[2] = system: FLT3 (human), P36888 [D835H]
FYN (human) = FYN (human) (UniProt P06241)
GSK3B (human) = GSK3B (human) (UniProt P49841)
[3] = system: KIT (human), P10721 [L576P]
LIMK1 (human) = LIMK1 (human) (UniProt P53667)
MAP3K1 (human) = MAP3K1 (human) (UniProt Q13233)
MAP3K1 (human), sequence (Q13233 whole entry, looked up): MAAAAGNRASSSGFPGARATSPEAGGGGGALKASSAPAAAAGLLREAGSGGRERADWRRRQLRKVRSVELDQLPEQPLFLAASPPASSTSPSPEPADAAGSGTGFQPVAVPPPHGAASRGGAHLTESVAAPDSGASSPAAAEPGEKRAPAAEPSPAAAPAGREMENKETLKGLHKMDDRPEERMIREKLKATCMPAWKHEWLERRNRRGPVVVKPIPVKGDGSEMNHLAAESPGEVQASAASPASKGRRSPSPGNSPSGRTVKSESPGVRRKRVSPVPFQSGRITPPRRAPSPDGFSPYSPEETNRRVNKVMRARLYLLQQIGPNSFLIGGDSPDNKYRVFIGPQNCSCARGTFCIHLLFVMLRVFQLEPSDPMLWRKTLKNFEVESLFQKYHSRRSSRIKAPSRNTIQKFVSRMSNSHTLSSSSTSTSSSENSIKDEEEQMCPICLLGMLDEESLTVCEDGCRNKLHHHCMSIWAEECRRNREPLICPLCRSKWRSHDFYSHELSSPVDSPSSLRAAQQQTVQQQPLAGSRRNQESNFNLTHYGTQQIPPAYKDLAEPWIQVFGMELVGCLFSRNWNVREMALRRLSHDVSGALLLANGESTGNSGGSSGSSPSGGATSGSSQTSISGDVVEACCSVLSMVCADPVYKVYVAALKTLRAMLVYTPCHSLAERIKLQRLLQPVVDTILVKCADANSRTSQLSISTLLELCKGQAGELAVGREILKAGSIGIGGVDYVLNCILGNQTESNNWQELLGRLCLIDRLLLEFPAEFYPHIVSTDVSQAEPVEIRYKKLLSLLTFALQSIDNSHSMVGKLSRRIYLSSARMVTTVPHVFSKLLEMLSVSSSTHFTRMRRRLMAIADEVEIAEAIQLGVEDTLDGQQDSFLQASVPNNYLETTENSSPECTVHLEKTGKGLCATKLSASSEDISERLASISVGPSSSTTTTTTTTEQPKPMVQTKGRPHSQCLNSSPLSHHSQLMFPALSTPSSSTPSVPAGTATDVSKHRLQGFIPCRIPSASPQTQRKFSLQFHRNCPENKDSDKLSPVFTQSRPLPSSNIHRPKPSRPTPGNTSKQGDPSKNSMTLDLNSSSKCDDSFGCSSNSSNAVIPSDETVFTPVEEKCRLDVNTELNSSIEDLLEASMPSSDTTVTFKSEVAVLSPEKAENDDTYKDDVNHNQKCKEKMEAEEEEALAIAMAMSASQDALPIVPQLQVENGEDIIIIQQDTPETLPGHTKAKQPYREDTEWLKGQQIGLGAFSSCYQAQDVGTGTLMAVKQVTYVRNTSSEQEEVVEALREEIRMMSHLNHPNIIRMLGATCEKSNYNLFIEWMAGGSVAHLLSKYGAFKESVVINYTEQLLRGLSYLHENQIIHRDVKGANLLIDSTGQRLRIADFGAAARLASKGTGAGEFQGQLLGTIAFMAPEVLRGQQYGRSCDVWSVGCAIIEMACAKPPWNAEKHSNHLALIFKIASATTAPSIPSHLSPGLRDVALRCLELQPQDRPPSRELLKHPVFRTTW

MAP3K15 (human) = MAP3K15 (human) (UniProt Q6ZN16)
MAP3K2 (human) = MAP3K2 (human) (UniProt Q9Y2U5)
MAP3K2 (human), sequence (Q9Y2U5 whole entry, looked up): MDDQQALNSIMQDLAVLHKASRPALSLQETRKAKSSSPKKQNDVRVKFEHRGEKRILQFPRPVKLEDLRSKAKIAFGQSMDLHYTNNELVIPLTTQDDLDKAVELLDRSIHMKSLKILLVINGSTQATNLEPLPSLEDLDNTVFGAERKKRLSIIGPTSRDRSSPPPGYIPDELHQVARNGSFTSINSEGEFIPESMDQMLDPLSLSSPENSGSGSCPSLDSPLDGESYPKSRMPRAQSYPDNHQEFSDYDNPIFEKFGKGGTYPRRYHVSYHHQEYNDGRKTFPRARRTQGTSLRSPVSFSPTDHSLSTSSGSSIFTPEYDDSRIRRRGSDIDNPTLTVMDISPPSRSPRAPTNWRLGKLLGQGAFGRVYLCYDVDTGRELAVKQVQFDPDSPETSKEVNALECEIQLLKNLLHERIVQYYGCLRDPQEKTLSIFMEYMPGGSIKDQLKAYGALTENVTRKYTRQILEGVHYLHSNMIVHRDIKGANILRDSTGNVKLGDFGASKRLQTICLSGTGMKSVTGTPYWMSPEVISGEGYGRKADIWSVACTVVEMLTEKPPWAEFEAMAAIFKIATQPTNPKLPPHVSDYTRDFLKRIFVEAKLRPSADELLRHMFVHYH

MAP3K9 (human) = MAP3K9 (human) (UniProt P80192)
MARK3 (human) = MARK3 (human) (UniProt P27448)
[4] = system: MET (human), P08581 [Y1235D]
MINK1 (human) = MINK1 (human) (UniProt Q8N4C8)
MYO3B (human) = MYO3B (human) (UniProt Q8WXR4)
NIM1 (human) = NIM1 (human) (UniProt Q8IY84)
PAK4 (human) = PAK4 (human) (UniProt O96013)
PAK6 (human) = PAK6 (human) (UniProt Q9NQU5)
PAK6 (human), sequence (Q9NQU5 whole entry, looked up): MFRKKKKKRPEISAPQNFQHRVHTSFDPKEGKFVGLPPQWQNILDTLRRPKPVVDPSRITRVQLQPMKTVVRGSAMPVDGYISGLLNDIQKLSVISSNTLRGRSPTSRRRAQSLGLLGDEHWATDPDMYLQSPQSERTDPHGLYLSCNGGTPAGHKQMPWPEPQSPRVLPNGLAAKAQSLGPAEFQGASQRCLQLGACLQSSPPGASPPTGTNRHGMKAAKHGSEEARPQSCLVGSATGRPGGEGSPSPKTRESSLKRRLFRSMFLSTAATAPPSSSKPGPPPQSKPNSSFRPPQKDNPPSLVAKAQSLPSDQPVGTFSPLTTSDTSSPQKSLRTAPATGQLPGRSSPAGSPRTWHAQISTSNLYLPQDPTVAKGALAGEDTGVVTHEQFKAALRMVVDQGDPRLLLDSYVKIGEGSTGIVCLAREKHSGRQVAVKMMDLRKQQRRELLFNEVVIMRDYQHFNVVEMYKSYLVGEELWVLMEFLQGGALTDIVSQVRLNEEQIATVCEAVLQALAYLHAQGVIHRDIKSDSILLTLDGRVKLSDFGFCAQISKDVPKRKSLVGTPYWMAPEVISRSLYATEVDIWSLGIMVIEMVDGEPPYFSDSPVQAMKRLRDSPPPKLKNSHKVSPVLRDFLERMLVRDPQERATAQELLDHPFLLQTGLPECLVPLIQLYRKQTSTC

PDGFRB (human) = PDGFRB (human) (UniProt P09619)
[5] = system: PIK3CA (human), P42336 [C420R]
[6] = system: PIK3CA (human), P42336 [H1047L]
PIM3 (human) = PIM3 (human) (UniProt Q86V86)
PLK3 (human) = PLK3 (human) (UniProt Q9H4B4)
ROCK1 (human) = ROCK1 (human) (UniProt Q13464)
SBK1 (human) = SBK1 (human) (UniProt Q52WX2)
SBK1 (human), sequence (Q52WX2 whole entry, looked up): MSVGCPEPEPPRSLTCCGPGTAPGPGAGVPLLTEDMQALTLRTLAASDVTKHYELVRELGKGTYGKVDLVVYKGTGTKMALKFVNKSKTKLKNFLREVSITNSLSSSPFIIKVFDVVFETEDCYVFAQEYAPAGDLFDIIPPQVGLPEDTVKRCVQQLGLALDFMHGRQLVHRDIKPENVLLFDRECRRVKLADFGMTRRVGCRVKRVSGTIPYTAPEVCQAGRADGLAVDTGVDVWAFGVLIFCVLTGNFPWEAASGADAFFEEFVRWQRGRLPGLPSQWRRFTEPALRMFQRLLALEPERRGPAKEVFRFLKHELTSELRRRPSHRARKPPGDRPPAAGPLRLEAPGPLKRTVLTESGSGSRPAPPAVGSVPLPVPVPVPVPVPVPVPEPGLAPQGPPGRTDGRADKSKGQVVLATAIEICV

STK32A (human) = STK32A (human) (UniProt Q8WU08)
STK32B (human) = STK32B (human) (UniProt Q9NY57)
STK38L (human) = STK38L (human) (UniProt Q9Y2H1)
STK38L (human), sequence (Q9Y2H1 whole entry, looked up): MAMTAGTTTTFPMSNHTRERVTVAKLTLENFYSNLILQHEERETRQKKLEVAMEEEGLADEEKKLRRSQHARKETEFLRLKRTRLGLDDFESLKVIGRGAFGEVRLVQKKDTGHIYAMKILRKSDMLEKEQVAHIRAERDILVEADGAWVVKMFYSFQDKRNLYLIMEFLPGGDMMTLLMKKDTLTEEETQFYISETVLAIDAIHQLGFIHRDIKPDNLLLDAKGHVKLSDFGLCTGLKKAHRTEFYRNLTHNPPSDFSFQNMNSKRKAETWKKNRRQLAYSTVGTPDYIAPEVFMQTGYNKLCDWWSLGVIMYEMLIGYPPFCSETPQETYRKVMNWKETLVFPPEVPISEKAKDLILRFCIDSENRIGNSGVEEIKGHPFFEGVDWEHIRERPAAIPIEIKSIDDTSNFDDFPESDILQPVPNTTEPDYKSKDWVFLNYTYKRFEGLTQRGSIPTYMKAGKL

TAOK1 (human) = TAOK1 (human) (UniProt Q7L7X3)
TAOK2 (human) = TAOK2 (human) (UniProt Q9UL54)
ULK2 (human) = ULK2 (human) (UniProt Q8IYT8)
ULK3 (human) = ULK3 (human) (UniProt Q6PHR2)
ZAP70 (human) = ZAP70 (human) (UniProt P43403)

AKT3 (human), sequence (Q9Y243 whole entry, looked up): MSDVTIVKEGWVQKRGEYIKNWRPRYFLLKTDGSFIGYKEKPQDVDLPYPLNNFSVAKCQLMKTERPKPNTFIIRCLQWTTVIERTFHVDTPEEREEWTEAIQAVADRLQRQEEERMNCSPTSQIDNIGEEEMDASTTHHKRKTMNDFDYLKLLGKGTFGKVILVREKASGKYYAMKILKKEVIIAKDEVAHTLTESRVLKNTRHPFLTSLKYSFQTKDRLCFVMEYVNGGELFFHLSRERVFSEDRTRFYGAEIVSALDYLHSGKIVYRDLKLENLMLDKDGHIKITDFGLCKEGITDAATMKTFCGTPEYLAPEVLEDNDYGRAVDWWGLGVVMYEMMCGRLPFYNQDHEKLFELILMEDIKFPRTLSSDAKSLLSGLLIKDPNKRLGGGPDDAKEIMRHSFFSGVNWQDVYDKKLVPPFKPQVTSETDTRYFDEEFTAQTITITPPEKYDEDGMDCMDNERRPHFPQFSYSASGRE
ACVR1B (human), sequence (P36896 whole entry, looked up): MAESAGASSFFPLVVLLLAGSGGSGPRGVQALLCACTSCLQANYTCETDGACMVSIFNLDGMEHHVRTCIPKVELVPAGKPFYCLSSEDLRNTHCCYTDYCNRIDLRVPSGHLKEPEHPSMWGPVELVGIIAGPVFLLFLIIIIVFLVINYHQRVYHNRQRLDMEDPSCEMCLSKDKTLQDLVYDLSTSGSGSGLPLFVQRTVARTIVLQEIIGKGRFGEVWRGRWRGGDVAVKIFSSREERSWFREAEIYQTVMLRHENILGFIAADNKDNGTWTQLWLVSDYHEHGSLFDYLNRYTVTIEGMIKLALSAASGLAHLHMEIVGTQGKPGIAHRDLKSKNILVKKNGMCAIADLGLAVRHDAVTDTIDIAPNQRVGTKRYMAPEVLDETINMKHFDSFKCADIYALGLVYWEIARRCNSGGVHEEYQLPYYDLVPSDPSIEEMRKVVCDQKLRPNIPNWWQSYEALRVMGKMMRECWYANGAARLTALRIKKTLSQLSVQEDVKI
AURKC (human), sequence (Q9UQB9 whole entry, looked up): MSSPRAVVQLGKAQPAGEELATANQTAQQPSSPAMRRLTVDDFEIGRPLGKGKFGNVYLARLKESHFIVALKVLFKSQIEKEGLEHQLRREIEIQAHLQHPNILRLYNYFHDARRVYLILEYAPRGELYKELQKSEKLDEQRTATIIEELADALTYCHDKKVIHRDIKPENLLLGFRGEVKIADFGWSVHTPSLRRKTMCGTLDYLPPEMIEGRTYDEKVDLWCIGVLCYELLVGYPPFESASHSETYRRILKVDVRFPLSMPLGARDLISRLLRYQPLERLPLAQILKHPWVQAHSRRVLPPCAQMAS

`Cn1c2ccccc2c2c3c(c4c5ccccc5n(CCC#N)c4c21)CNC3=O` was tested, and the kinase still bound, per cent of control [1] was 75%, the kinase still bound, per cent of control (ACVR1B (human)) was 85% and the kinase still bound, per cent of control (AKT3 (human)) was 100%. The kinase still bound, per cent of control (AURKC (human)) was 8%, the kinase still bound, per cent of control (CAMK4 (human)) was 100% and the kinase still bound, per cent of control (CDC42BPB (human)) was 100%. It also gave a kinase still bound, per cent of control (CHUK (human)) of 88%, a kinase still bound, per cent of control (CLK4 (human)) of 6.1% and a kinase still bound, per cent of control (CSNK1G2 (human)) of 94%. For the same molecule, the kinase still bound, per cent of control (EPHB3 (human)) was 85%, the kinase still bound, per cent of control (EPHB4 (human)) was 100% and the kinase still bound, per cent of control [2] was 2.6%. For the same molecule, the kinase still bound, per cent of control (FYN (human)) was 92%, the kinase still bound, per cent of control (GSK3B (human)) was 81% and the kinase still bound, per cent of control [3] was 46%. For the same molecule, the kinase still bound, per cent of control (LIMK1 (human)) was 96%, the kinase still bound, per cent of control (MAP3K1 (human)) was 100% and the kinase still bound, per cent of control (MAP3K15 (human)) was 97%. For the same molecule, the kinase still bound, per cent of control (MAP3K2 (human)) was 0.1%, the kinase still bound, per cent of control (MAP3K9 (human)) was 0.65% and the kinase still bound, per cent of control (MARK3 (human)) was 16%. For the same molecule, the kinase still bound, per cent of control [4] was 80%, the kinase still bound, per cent of control (MINK1 (human)) was 1% and the kinase still bound, per cent of control (MYO3B (human)) was 100%. The kinase still bound, per cent of control (NIM1 (human)) was 100%, the kinase still bound, per cent of control (PAK4 (human)) was 4% and the kinase still bound, per cent of control (PAK6 (human)) was 1.4%. It also gave a kinase still bound, per cent of control (PDGFRB (human)) of 42%, a kinase still bound, per cent of control [5] of 46% and a kinase still bound, per cent of control [6] of 43%. The kinase still bound, per cent of control (PIM3 (human)) was 8.9%, the kinase still bound, per cent of control (PLK3 (human)) was 100% and the kinase still bound, per cent of control (ROCK1 (human)) was 22%. It also gave a kinase still bound, per cent of control (SBK1 (human)) of 82%, a kinase still bound, per cent of control (STK32A (human)) of 94% and a kinase still bound, per cent of control (STK32B (human)) of 100%. The kinase still bound, per cent of control (STK38L (human)) was 66%, the kinase still bound, per cent of control (TAOK1 (human)) was 8% and the kinase still bound, per cent of control (TAOK2 (human)) was 7.7%. It also gave a kinase still bound, per cent of control (ULK2 (human)) of 86%, a kinase still bound, per cent of control (ULK3 (human)) of 15% and a kinase still bound, per cent of control (ZAP70 (human)) of 35%.
